Key:
Rv2067c [1] = target: T1, Rv2067c (Mycobacterium tuberculosis, UniProt P9WLL9)
Rv2067c [2] = target: T1, Rv2067c; remark: listed apart in the source

T1 sequence (P9WLL9 whole entry): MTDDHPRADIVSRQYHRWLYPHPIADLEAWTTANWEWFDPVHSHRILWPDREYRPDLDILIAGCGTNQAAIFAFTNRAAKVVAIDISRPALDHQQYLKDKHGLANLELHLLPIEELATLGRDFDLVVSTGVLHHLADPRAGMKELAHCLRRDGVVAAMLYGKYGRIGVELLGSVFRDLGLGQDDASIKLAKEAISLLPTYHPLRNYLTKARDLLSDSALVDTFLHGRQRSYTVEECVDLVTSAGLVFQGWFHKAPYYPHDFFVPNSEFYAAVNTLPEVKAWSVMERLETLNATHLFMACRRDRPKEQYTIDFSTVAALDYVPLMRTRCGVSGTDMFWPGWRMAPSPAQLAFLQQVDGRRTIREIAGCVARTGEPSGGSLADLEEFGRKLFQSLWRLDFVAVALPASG

SMILES | radiometric methyltransferase assay (scintillation counting, autoradiography) (Rv2067c [1]) | X-ray crystallography, 2.40 Å (Rv2067c [2])
C[S+](CC[C@H](N)C(=O)O)C[C@H]1O[C@@H](n2cnc3c(N)ncnc32)[C@H](O)[C@@H]1O (stereo partly drawn) [S-Adenosyl-L-methionine] | Rv2067c as MTase, and tritiated SAM as a methyl donor, methylation of histones was detected | 
Nc1ncnc2c1ncn2[C@@H]1O[C@H](CSCC[C@H](N)C(=O)O)[C@@H](O)[C@H]1O [S-adenosyl-L-homocysteine] |  | The coordinates for Rv2067c-SAH structure have been deposited in the Protein Data Bank

Source: publication PMC10739865, “The Mycobacterium tuberculosis methyltransferase Rv2067c manipulates host epigenetic programming to promote its own survival” (Nature Communications, 2023)
